Results as given in PMC3100252, “A theoretical entropy score as a single value to express inhibitor selectivity” (BMC Bioinformatics, 2011).
Like-named read-outs stand apart in the source and are kept apart here.

How the values were obtained:
[1] = tested on: 290 kinases (excluding mutants); format: binding; conditions: for Ka-Gini: Gini score calculated directly on Kas of the Ambit dataset (Kds of ref 5); for entropies (selectivity entropy, Ssel): calculated from Kds of the Ambit dataset (ref 5)
Description: Having defined the entropy, we next investigated its performance relative to the most widely-used methods, on a public profiling dataset of 38 inhibitors on 290 non-mutant kinases (Table 1 and Additional file 1). […] To this we added a Ka-Gini value and the selectivity entropy. The Ka-Gini is a Gini score directly calculated on Kas, without reverting to %-inhibition values (see below). […] In addition, to get an overview of the profiling raw data, we appended an activity-based heat map (Uitdehaag_S1).
(§1) It is worth to note that the partition coefficient is the same as ϕl in our entropy equation (eq. 2).
The Gini score was calculated from data on %-inhibition. […] In addition, to work more directly with Kds, we also introduce a Ka-Gini score, in which association constants are used for rank-ordering the kinase profile. […] All calculations were done in Microsoft Excel. […]

[2] = tested on: 290 kinases (excluding mutants); conditions: cited from earlier work
[3] = tested on: 222 human kinases; experiment: Millipore kinase profiling (radioactive filter binding activity assay at [ATP] = KM,ATP) and selectivity metrics calculated from it; format: biochemical; design: selectivity score: scale not given here; conditions: for Ka-Gini score / Pmax / S10x / selectivity score: calculated from Millipore activity data; for selectivity entropy: calculated from Millipore activity data (pEC50), [ATP] = KM,ATP
Description: As a next step we selected 16 compounds from the public profile (Ambit), and measured activity data on these using a different profiling service (Millipore, data available as Additional file 2). […] Also for these new data, we calculated the selectivity metrics (Uitdehaag_S2). In the ideal case, the selectivity values are similar irrespective of profiling technology (in the same way that a Kd value is ideally independent of laboratory and assay format). The data of both methods are plotted in Figure 2.
as §1
The Gini score was calculated from data on %-inhibition. […] In addition, to work more directly with Kds, we also introduce a Ka-Gini score, in which association constants are used for rank-ordering the kinase profile. […] All calculations were done in Microsoft Excel.
For comparing profiles across methods (Figure 2), we selected 16 kinase inhibitors of the Ambit profile (Table 2) and submitted these to the kinase profiling service from Millipore (http://www.millipore.com/drugdiscovery/svp3/kpservices, data available as Additional file 2). Both profiling methods are described earlier and differ (among other variations) in the following way: Ambit uses a competitive binding setup in absence of ATP on kinases from T7 or HEK293 expression systems. Millipore uses a radioactive filter binding activity assay, with kinases purified from Escherichia coli or baculovirus expression systems.

[4] = Ambit dataset, 38 inhibitors on 290 non-mutant kinases, values taken from earlier work
[5] = Ambit dataset, fraction of kinases hit at 10 times the Kd of the target, values taken from earlier work
[6] = Ambit dataset, fraction of kinases hit below 3 μM, values taken from earlier work
[7] = Ambit dataset, values taken from earlier work
[8] = rank among 38 inhibitors, Ambit dataset

Row | Structure (SMILES) | Ka-Gini [1] | entropies (selectivity entropy, Ssel) ([1]; 290 kinases) | Gini [2, 4] | S10x [2, 5] | Pmax (partition index) [2, 7] | further results
1 | Cc1ccc(Nc2nccc(N(C)c3ccc4c(C)n(C)nc4c3)n2)cc1S(N)(=O)=O [GW-786034] | 0.97 | 2.06 | 0.80 | 0.02 | 0.33 | S3uM (selectivity score S(3 μM)) [2, 6]: 0.21
2 | Cc1ccc(F)c(NC(=O)Nc2ccc(-c3cccc4[nH]nc(N)c34)cc2)c1 [ABT-869, linifanib] | 0.98 | 1.93 | 0.82 | 0.01 | 0.32 | Ka-Gini score [3]: 0.968; Pmax [3]: 0.132; S10x [3]: 0.025; selectivity score [3]: 0.235; selectivity entropy [3]: 2.834; S3uM (selectivity score S(3 μM)) [2, 6]: 0.16
3 | Oc1ccc(-c2nc(-c3ccncc3)c(-c3ccc(F)cc3)[nH]2)cc1 [SB-202190] | 0.97 | 2.08 | 0.76 | 0.02 | 0.35 | S3uM (selectivity score S(3 μM)) [2]: 0.09
4 | Cc1ccc(NC(=O)c2ccc(CN3CCN(C)CC3)cc2)cc1Nc1nccc(-c2cccnc2)n1 [Imatinib, imatinib] |  |  |  |  |  | Gini [2]: 0.79; S10x [2]: 0.02
5 | CN1CC[C@H](c2c(O)cc(O)c3c(=O)cc(-c4ccccc4Cl)oc23)[C@H](O)C1 [Flavopiridol] | 0.95 |  | 0.77 |  |  | 
6 | CO[C@@H]1[C@H](N(C)C(=O)c2ccccc2)C[C@H]2O[C@]1(C)n1c3ccccc3c3c4c(c5c6ccccc6n2c5c31)C(=O)NC4 [PKC-412] | 0.88 |  | 0.71 |  |  | 
7 | C[C@@H]1CCN(C(=O)CC#N)C[C@@H]1N(C)c1ncnc2[nH]ccc12 [CP-690550, tasocitinib] |  |  | 0.66 |  |  | Ka-Gini score [3]: 0.995; Pmax [3]: 0.481; S10x [3]: 0.005
8 | Cn1cnc2c(F)c(Nc3ccc(Br)cc3Cl)c(C(=O)NOCCO)cc21 [AZD6244] |  |  |  |  |  | Ka-Gini score [3]: 1.000; Pmax [3]: 0.999; S10x [3]: 0.002; selectivity entropy [3]: 0.020
9 | CC1(C)CNc2cc(NC(=O)c3cccnc3NCc3ccncc3)ccc21 [AMG-706] | 0.97 | 2.36 | 0.82 | 0.04 | 0.22 | S3uM (selectivity score S(3 μM)) [2]: 0.09
10 | COCC(=O)NC/C=C/c1ccc2ncnc(Nc3ccc(Oc4ccc(C)nc4)c(C)c3)c2c1 [CP-724714] | 0.99 | 1.10 | 0.49 | 0.01 | 0.33 | S3uM (selectivity score S(3 μM)) [2, 6]: 0.02
11 | CS(=O)(=O)CCNCc1ccc(-c2ccc3ncnc(Nc4ccc(OCc5cccc(F)c5)c(Cl)c4)c3c2)o1 [Lapatinib] | 0.99 |  | 0.57 |  |  | 
12 | CCOc1cc2ncc(C#N)c(Nc3ccc(F)c(Cl)c3)c2cc1NC(=O)/C=C/CN(C)C [EKB-569] | 0.99 | 0.89 | 0.78 | 0.00 | 0.67 | S3uM (selectivity score S(3 μM)) [2, 6]: 0.18
13 | NC(=O)c1ccc(-c2nc(-c3ccc4c(c3)OCO4)c(-c3ccccn3)[nH]2)cc1 [SB-431542] | 0.98 | 1.56 | 0.42 | 0.01 | 0.14 | number of kinases inhibited below 3 μM ([1]; Ambit profile, 290 kinases): 5 kinases; selectivity rank by Ka-Gini [1, 8]: 15; selectivity rank by Pmax [1, 8]: 31; selectivity rank by selectivity entropy [1, 8]: 14; S3uM (selectivity score S(3 μM)) [2, 6]: 0.02; IC50 ([2]; Ambit profile, four kinases not named, read-out: IC50s on the four kinases hit with very similar IC50s): 0.1 to 0.3 µM
14 | CN1CCN(c2ccc3nc(-c4c(N)c5c(F)cccc5[nH]c4=O)[nH]c3c2)CC1 [CHIR-258] | 0.97 |  | 0.76 | 0.01 |  | 
15 | CC(C)(C)c1cnc(CSc2cnc(NC(=O)C3CCNCC3)s2)o1 [SNS-032] | 0.97 |  |  |  |  | 
16 | Nc1nc(Nc2ccc(S(N)(=O)=O)cc2)nn1C(=O)c1c(F)cccc1F [JNJ-7706621] | 0.87 | 3.73 | 0.74 | 0.08 | 0.10 | S3uM (selectivity score S(3 μM)) [2]: 0.37
17 | C[S+]([O-])c1ccc(-c2nc(-c3ccncc3)c(-c3ccc(F)cc3)[nH]2)cc1 (centres unmarked) [SB-203580] |  |  | 0.77 | 0.02 |  | Ka-Gini score [3]: 0.987; Pmax [3]: 0.342; S10x [3]: 0.016
18 | CCN1CCN(Cc2ccc(NC(=O)Nc3ccc(Oc4cc(NC)ncn4)cc3)cc2C(F)(F)F)CC1 [AST-487] | 0.95 | 2.74 | 0.73 | 0.04 | 0.11 | S3uM (selectivity score S(3 μM)) [2, 6]: 0.45
19 | CN(C)C[C@@H]1CCn2cc(c3ccccc32)C2=C(C(=O)NC2=O)c2cn(c3ccccc23)CCO1 [LY-333531] | 0.98 |  | 0.76 |  |  | 
20 | COc1ccc(COc2ccc(Cc3cnc(N)nc3N)cc2OC)cc1 [GW-2580] | 0.99 | 0.26 | 0.54 | 0.00 | 0.92 | S3uM (selectivity score S(3 μM)) [2, 6]: 0.01
21 | COc1cc2ncnc(Nc3ccc(F)c(Cl)c3)c2cc1OCCCN1CCOCC1 [Gefitinib] |  |  | 0.65 |  |  | 
22 | C#Cc1cccc(Nc2ncnc3cc(OCCOC)c(OCCOC)cc23)c1 [Erlotinib] | 0.99 | 0.88 | 0.75 | 0.00 | 0.67 | S3uM (selectivity score S(3 μM)) [2]: 0.15
23 | Cc1cn(-c2cc(NC(=O)c3ccc(C)c(Nc4nccc(-c5cccnc5)n4)c3)cc(C(F)(F)F)c2)cn1 [nilotinib] |  |  |  |  |  | Ka-Gini score [3]: 0.980; Pmax [3]: 0.208; S10x [3]: 0.027; selectivity score [3]: 0.095; selectivity entropy [3]: 2.360
24 | O=C(NOC[C@H](O)CO)c1ccc(F)c(F)c1Nc1ccc(I)cc1F [PD-0325901] |  |  |  |  |  | Ka-Gini score [3]: 1.000; Pmax [3]: 0.857; S10x [3]: 0.002; selectivity score [3]: 0.005; selectivity entropy [3]: 0.550
25 | CN[C@@H]1C[C@H]2O[C@@](C)([C@@H]1OC)n1c3ccccc3c3c4c(c5c6ccccc6n2c5c31)C(=O)NC4 [Staurosporine] |  |  | 0.35 | 0.50 |  | 
26 | Clc1ccc(Nc2nnc(Cc3ccncc3)c3ccccc23)cc1 [PTK-787] |  |  |  |  |  | Gini [2]: 0.71
27 | C=CC(=O)Nc1cc2c(Nc3ccc(F)c(Cl)c3)ncnc2cc1OCCCN1CCOCC1 [CI-1033] | 0.99 |  | 0.72 |  |  | 
